Key:
Parameters in all cases: Invitrogen kinase panel, per cent inhibition of kinase activity
AKT1 = AKT1 (Homo sapiens, UniProt P31749); conditions: 10 µM, inhibitor
Protocol: (§1) To discover a potent and selective BDK inhibitor, a subset of the Pfizer compound collection was screened. […] Off target activity was assessed in both CEREP and kinase panels (Supplementary Tables 2, 3).

AURKA = target: T1, AURKA (Homo sapiens, UniProt O14965); conditions: 10 µM, inhibitor
T1 sequence (O14965 1-403): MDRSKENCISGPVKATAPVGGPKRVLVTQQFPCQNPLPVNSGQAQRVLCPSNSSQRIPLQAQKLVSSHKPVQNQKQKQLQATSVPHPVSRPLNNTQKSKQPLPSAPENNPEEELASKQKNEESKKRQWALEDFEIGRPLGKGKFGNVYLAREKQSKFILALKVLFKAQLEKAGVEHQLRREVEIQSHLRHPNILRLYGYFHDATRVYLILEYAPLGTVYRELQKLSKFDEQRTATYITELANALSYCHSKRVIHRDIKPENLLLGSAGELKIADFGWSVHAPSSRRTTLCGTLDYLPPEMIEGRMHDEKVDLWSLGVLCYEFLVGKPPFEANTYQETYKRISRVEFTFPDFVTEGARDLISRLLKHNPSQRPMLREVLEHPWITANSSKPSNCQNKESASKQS
Protocol: as §1

CAMK2A = CAMK2A (Homo sapiens, UniProt Q9UQM7); conditions: 10 µM, inhibitor
Protocol: as §1

CDK2/Cyclin-A = CDK2/Cyclin-A (Homo sapiens, UniProt P24941); conditions: 10 µM, inhibitor
Protocol: as §1

CSK tyrosine Kinase = CSK tyrosine Kinase (Homo sapiens, UniProt P41240); conditions: 10 µM, inhibitor
Summary of the method: (§2)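 Activity was measured in a kinase selectivity panel. The data come from off-target testing of the same BDK inhibitors.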

[1] = target: T2, Epidermal Growth Factor Receptor (Homo sapiens, UniProt P00533); conditions: 10 µM, inhibitor
T2 construct: gene EGFR
Protocol: as §1

IRAK4 = target: T3, IRAK4 (Homo sapiens, UniProt Q9NWZ3); conditions: 10 µM, inhibitor
T3 sequence (Q9NWZ3 1-460): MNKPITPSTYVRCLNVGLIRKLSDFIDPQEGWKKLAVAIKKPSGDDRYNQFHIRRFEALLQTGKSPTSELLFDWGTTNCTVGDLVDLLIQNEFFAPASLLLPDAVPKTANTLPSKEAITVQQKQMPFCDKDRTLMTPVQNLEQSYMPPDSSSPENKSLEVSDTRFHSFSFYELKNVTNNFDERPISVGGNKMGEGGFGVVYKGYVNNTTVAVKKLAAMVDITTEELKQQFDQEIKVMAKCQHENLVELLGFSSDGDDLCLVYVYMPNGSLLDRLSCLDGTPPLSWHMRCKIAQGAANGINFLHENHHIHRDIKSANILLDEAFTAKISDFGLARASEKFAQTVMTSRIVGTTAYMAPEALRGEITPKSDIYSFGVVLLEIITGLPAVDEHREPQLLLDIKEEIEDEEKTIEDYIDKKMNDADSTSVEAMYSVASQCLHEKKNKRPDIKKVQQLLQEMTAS
Protocol: as §1

[2] = target: T4, IkB kinase beta subunit (IKK BETA) (Homo sapiens, UniProt O14920); conditions: 10 µM, inhibitor
T4 construct: gene IKBKB
Summary of the method: as §2

MAPK13 = MAPK13 (Homo sapiens, UniProt O15264); conditions: 10 µM, inhibitor
Summary of the method: as §2

MSK1 = target: T5, MSK1 (Homo sapiens, UniProt O75582); conditions: 10 µM, inhibitor
T5 construct: gene RPS6KA5
Summary of the method: as §2

NEK6 = NEK6 (Homo sapiens, UniProt Q9HC98); conditions: 10 µM, inhibitor
Summary of the method: as §2

PI4KB = PI4KB (Homo sapiens, UniProt Q9UBF8); conditions: 10 µM, inhibitor
Summary of the method: as §2

PIK3CD = PIK3CD (Homo sapiens, UniProt O00329); conditions: 10 µM, inhibitor
Summary of the method: as §2

PLK1 = PLK1 (Homo sapiens, UniProt P53350); conditions: 10 µM, inhibitor
Summary of the method: as §2

PRKCA = target: T6, PRKCA (Homo sapiens, UniProt P17252); conditions: 10 µM, inhibitor
T6 construct: 1 mM ATP
Summary of the method: as §2

SPHK1 = SPHK1 (Homo sapiens, UniProt Q9NYA1); conditions: 10 µM, inhibitor
Summary of the method: as §2

SPHK2 = SPHK2 (Homo sapiens, UniProt Q9NRA0); conditions: inhibitor
Protocol: as §1

SRPK1 = SRPK1 (Homo sapiens, UniProt Q96SB4); conditions: 10 µM, inhibitor
Summary of the method: as §2

TEK = TEK (Homo sapiens, UniProt Q02763); conditions: 10 µM, inhibitor
Protocol: as §1

mTOR = mTOR (Homo sapiens, UniProt P42345); conditions: 10 µM, inhibitor
Summary of the method: as §2

TEK, sequence (Q02763 whole entry): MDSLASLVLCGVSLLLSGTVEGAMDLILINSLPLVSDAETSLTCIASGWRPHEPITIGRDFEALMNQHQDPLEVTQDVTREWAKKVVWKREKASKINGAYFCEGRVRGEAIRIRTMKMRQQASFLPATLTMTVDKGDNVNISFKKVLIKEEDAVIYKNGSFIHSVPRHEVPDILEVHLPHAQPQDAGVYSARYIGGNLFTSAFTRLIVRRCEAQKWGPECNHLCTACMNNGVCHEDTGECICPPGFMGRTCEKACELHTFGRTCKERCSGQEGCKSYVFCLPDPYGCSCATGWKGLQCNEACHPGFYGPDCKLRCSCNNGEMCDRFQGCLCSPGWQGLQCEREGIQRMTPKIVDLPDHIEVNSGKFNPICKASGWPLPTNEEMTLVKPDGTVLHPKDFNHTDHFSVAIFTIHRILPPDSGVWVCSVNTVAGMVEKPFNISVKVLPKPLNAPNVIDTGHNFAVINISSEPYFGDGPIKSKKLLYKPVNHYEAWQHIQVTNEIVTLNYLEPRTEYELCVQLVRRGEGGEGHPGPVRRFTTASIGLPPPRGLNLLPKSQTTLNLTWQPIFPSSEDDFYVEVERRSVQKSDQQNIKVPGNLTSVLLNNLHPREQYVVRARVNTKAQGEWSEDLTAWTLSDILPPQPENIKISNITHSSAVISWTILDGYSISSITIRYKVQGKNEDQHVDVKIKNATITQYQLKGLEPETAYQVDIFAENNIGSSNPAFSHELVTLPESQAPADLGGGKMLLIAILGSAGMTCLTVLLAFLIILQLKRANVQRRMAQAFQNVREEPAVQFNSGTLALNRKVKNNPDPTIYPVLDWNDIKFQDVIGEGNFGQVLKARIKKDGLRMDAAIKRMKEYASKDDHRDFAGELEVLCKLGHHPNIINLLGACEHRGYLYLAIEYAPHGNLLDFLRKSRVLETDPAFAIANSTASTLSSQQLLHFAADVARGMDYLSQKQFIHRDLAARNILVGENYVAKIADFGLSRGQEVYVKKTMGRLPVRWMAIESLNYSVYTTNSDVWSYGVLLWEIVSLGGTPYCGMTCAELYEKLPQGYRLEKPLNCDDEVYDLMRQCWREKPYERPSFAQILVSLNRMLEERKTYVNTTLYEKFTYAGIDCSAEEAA
T2 sequence (P00533 whole entry): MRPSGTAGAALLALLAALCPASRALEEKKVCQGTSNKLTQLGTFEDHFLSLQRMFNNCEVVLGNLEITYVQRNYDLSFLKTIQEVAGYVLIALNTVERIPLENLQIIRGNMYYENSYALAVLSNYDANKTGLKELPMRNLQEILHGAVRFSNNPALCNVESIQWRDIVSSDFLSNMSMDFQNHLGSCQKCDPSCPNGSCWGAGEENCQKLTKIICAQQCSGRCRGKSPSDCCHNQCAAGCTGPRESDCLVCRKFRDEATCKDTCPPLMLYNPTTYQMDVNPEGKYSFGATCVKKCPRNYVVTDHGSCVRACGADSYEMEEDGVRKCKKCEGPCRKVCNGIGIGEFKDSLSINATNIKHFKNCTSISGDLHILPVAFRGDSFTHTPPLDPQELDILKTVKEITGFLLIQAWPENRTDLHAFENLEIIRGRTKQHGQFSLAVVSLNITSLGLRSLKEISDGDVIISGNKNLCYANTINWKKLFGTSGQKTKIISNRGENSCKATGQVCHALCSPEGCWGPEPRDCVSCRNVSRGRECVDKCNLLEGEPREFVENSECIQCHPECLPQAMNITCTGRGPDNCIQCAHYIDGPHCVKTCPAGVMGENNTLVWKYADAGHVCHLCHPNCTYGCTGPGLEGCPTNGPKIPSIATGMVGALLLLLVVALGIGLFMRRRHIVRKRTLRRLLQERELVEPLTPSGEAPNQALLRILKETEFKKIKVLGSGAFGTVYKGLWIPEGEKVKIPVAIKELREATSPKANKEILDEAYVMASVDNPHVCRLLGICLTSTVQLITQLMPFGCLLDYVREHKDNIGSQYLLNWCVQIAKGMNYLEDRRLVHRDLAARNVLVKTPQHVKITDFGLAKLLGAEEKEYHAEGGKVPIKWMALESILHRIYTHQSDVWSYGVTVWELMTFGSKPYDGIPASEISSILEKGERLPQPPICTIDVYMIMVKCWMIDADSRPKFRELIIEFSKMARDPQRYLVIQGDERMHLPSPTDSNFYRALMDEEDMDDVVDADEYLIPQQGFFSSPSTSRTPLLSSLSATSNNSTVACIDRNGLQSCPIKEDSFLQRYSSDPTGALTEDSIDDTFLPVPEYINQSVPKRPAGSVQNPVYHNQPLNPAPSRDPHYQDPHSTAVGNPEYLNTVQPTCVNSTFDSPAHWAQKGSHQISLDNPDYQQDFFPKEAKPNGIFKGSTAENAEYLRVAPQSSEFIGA
AKT1, sequence (P31749 whole entry): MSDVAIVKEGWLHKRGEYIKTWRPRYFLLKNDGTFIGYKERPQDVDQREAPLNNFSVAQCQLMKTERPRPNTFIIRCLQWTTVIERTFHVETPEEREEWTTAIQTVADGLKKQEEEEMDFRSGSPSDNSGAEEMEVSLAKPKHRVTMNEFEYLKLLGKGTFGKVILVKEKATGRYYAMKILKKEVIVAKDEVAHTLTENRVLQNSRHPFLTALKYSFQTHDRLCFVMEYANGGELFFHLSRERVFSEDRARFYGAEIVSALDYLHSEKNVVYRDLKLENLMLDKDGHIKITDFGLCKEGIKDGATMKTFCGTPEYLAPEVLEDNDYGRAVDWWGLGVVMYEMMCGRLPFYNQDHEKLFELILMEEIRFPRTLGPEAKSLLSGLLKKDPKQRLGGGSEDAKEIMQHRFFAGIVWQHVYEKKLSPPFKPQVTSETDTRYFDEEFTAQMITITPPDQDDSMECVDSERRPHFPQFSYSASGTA
CAMK2A, sequence (Q9UQM7 whole entry): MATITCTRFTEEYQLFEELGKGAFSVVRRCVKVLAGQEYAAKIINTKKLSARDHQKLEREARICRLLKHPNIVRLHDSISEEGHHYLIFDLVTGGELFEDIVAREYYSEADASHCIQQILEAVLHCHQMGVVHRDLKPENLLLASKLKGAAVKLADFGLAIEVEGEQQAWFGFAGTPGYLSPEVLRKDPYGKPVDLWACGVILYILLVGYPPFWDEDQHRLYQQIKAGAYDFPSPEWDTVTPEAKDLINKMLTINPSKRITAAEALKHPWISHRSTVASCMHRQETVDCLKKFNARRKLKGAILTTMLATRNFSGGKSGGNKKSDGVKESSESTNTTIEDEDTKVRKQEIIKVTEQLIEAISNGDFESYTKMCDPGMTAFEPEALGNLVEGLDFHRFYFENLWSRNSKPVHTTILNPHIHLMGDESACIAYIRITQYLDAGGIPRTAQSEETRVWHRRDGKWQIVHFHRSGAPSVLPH
SRPK1, sequence (Q96SB4 whole entry): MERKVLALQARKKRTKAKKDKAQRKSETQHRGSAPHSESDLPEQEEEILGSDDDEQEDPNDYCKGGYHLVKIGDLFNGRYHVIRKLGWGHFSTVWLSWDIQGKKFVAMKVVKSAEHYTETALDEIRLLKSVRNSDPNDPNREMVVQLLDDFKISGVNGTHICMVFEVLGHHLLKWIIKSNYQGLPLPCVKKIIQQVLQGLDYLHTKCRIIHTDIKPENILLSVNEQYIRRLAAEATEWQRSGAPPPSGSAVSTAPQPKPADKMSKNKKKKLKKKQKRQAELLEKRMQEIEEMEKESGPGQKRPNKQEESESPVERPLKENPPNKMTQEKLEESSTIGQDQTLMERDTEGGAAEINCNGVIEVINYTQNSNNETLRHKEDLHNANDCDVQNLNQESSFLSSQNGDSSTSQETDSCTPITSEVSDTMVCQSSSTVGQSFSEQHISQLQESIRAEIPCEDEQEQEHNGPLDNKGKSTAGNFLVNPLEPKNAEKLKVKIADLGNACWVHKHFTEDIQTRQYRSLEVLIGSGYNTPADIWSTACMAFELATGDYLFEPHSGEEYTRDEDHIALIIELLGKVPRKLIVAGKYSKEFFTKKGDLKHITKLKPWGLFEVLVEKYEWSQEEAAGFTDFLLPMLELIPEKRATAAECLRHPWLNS
MAPK13, sequence (O15264 whole entry): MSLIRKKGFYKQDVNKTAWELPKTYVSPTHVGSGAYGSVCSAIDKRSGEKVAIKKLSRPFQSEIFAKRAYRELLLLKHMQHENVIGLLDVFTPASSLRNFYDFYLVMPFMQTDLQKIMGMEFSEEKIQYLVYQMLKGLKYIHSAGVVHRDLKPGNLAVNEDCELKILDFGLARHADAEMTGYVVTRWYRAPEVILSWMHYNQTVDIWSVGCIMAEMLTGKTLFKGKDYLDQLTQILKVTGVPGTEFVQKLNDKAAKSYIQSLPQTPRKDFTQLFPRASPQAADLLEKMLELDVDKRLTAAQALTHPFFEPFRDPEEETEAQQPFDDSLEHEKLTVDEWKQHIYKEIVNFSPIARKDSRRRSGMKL
CSK tyrosine Kinase, sequence (P41240 whole entry): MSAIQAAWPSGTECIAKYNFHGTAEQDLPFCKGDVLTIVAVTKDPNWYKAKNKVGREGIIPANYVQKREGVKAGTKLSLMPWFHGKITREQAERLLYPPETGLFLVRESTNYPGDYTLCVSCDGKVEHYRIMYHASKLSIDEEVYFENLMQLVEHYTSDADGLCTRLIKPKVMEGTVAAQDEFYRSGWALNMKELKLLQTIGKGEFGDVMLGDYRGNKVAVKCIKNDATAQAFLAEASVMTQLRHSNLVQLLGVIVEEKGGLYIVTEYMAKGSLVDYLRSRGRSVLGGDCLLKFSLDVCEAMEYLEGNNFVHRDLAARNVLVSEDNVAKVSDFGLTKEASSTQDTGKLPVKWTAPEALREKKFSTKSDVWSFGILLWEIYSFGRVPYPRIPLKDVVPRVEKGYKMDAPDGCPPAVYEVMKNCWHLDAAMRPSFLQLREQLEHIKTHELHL

## O=C(O)c1sc2cc(F)sc2c1Cl [PF-07208254, 3-chloro-5-fluorothieno[3,2-b]thiophene-2-carboxylic acid]
AKT1
  ATP = 1 mM % Inhibition PF-07208254: -0.8%
  ATP = Km % Inhibition PF-07208254: 6.7%
AURKA
  ATP = 1 mM % Inhibition PF-07208254: -2.6%
  ATP = Km % Inhibition PF-07208254: 9.4%
CAMK2A
  ATP = 1 mM % Inhibition PF-07208254: -0.3%
  ATP = Km % Inhibition PF-07208254: 6.8%
CDK2/Cyclin-A
  ATP = 1 mM % Inhibition PF-07208254: -1.2%
  ATP = Km % Inhibition PF-07208254: 14.6%
CSK tyrosine Kinase
  ATP = Km % Inhibition PF-07208254: 2.9%
[1]
  ATP = 1 mM % Inhibition PF-07208254: -7.2%
  ATP = Km % Inhibition PF-07208254: -0.9%
IRAK4
  ATP = 1 mM % Inhibition PF-07208254: -2.1%
  ATP = Km % Inhibition PF-07208254: 6.2%
[2]
  ATP = Km % Inhibition PF-07208254: 4.8%
MAPK13
  ATP = Km % Inhibition PF-07208254: 3.6%
MSK1
  ATP = Km % Inhibition PF-07208254: 2.7%
NEK6
  ATP = Km % Inhibition PF-07208254: 7.1%
PI4KB
  ATP = Km % Inhibition PF-07208254: 7.9%
PIK3CD
  ATP = Km % Inhibition PF-07208254: 6.4%
PLK1
  ATP = Km % Inhibition PF-07208254: 1.8%
PRKCA
  ATP = Km % Inhibition PF-07208254: 3.8%
SPHK1
  ATP = Km % Inhibition PF-07208254: -15.9%
SPHK2
  ATP = 10 uM % Inhibition PF-07208254: -11.8%
SRPK1
  ATP = Km % Inhibition PF-07208254: 2.8%
TEK
  ATP = 1 mM % Inhibition PF-07208254: 0.7%
  ATP = Km % Inhibition PF-07208254: 0.3%
mTOR
  ATP = Km % Inhibition PF-07208254: 5.1%

## CCC1(COc2ccc(-c3csc(-c4ccccc4C(=O)O)n3)cn2)CC1 [PF-07247685, 2-(4-{6-[(1-ethylcyclopropyl)methoxy]pyridin-3-yl}-1,3-thiazol-2-yl)benzoic acid]
AKT1
  ATP = 1 mM % Inhibition PF-07247685: -0.8%
  ATP = Km % Inhibition PF-07247685: 2.4%
AURKA
  ATP = 1 mM % Inhibition PF-07247685: 2.2%
  ATP = Km % Inhibition PF-07247685: 8.9%
CAMK2A
  ATP = 1 mM % Inhibition PF-07247685: 3.5%
  ATP = Km % Inhibition PF-07247685: 2.8%
CDK2/Cyclin-A
  ATP = 1 mM % Inhibition PF-07247685: -1.4%
  ATP = Km % Inhibition PF-07247685: 1.2%
CSK tyrosine Kinase
  ATP = Km % Inhibition PF-07247685: 4.3%
[1]
  ATP = 1 mM % Inhibition PF-07247685: 1.2%
  ATP = Km % Inhibition PF-07247685: -2.6%
IRAK4
  ATP = 1 mM % Inhibition PF-07247685: 2.9%
  ATP = Km % Inhibition PF-07247685: -0.9%
[2]
  ATP = Km % Inhibition PF-07247685: -0.0%
MAPK13
  ATP = Km % Inhibition PF-07247685: -0.7%
MSK1
  ATP = Km % Inhibition PF-07247685: -1.4%
NEK6
  ATP = Km % Inhibition PF-07247685: 1.2%
PI4KB
  ATP = Km % Inhibition PF-07247685: 7.1%
PIK3CD
  ATP = Km % Inhibition PF-07247685: -7.0%
PLK1
  ATP = Km % Inhibition PF-07247685: 10.1%
PRKCA
  ATP = Km % Inhibition PF-07247685: 14.8%
SPHK1
  ATP = Km % Inhibition PF-07247685: -82.5%
SPHK2
  ATP = 10 uM % Inhibition PF-07247685: 3.9%
SRPK1
  ATP = Km % Inhibition PF-07247685: 12.6%
TEK
  ATP = 1 mM % Inhibition PF-07247685: 8.6%
  ATP = Km % Inhibition PF-07247685: 0.6%
mTOR
  ATP = Km % Inhibition PF-07247685: 0.4%
